Assay results reported in ChEMBL document CHEMBL4130396, “Bistinospinosides A and B, Dimeric Clerodane Diterpene Glycosides from Tinospora sagittata” (J Nat Prod, 2017).
Positions of bridges follow the written chain, without caps; N, C: chain ends. Non-standard residues stand in square brackets, D forms with d. Residues, ends and D or L forms follow the SMILES beside them. *: point of attachment. X1 = CC[C@H](C)CCCCC(=O)*; Dab = NCC[C@H](N)C(=O)O

test system: J774.1; test: Antiinflammatory activity in mouse J774.1 cells assessed as inhibition of LPS/[…]-induced NO production after 48 hrs by Griess assay; assay type: functional, cell-based; conditions: J774.1, 48 h

How did the IC50 turn out when `C[C@@]12C[C@@H](C3=C[C@@H]4O[C@H]3[C@H]3[C@H]5OC(=O)[C@@](O[C@@H]6O[C@H](CO)[C@@H](O)[C@H](O)[C@H]6O)([C@H]34)[C@]3(C)CC[C@H]4C(=O)O[C@H](c6ccoc6)C[C@@]4(C)[C@H]53)OC(=O)[C@@H]1CC[C@]1(C)[C@H]2[C@H]2C=C[C@]1(O[C@@H]1O[C@H](CO)[C@@H](O)[C@H](O)[C@H]1O)C(=O)O2` was run?
Its IC50 is over 50 µM.

For `CC[C@H](C)CCCCC(=O)N[C@@H](CCN)C(=O)N[C@H](C(=O)N[C@@H](CCN)C(=O)N[C@H]1CCNC(=O)[C@H]([C@@H](C)O)NC(=O)[C@H](CCN)NC(=O)[C@H](CCN)NC(=O)[C@H](CC(C)C)NC(=O)[C@@H](Cc2ccccc2)NC(=O)[C@H](CCN)NC1=O)[C@@H](C)O` (X1-[Dab]T[Dab][Dab][Dab][dF]L[Dab][Dab]T; lactam 4-C), which IC50 is on record?
The IC50 was 8.5 µM.

Which IC50 does the source give for `C[C@@]12C[C@@H](C3=C[C@H]4O[C@@H]3[C@H]3[C@@H]4[C@H]4OC(=O)[C@]3(O[C@@H]3O[C@H](CO)[C@@H](O)[C@H](O)[C@H]3O)[C@]3(C)CC[C@H]5C(=O)O[C@H](c6ccoc6)C[C@@]5(C)[C@H]43)OC(=O)[C@@H]1CC[C@]1(C)[C@H]2[C@H]2C=C[C@]1(O[C@@H]1O[C@H](CO)[C@@H](O)[C@H](O)[C@H]1O)C(=O)O2` here?
The IC50 was over 50 µM.
